Assay results reported in patent publication US12336981B2, “Compounds and compositions for the inhibition of NAMPT” (Valo Health, Inc., priority 2010, dated 2025).
Like-named read-outs stand apart in the source and are kept apart here.

Key:
NAMPT = biological target: T1, NAMPT (Homo sapiens, UniProt P43490); assay: Biochemical inhibition assay: NAMPT enzymatic reaction, NMN quantified by mass spectrometry; conditions: read-out: Biochem IC50
T1 construct: His tag; host or cells: E. coli
In short: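 Inhibition of E. coli-expressed His-tagged human NAMPT, measured as NMN formation by mass spectrometry after a 30 min room-temperature reaction containing 1 μM NAM, 100 μM PRPP and 2.5 mM ATP.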

A2780 cells = assay: In-vitro cell proliferation assay (SRB), A2780 cells; type: cell-based; conditions: Homo sapiens, A2780, 72 h, A2780 cells, 72 hours, read-out: A2780 IC50
In short: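 Proliferation is assessed by sulforhodamine B staining following a 72-hour incubation with compound dilutions containing 0.1% DMSO.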

T1 sequence (P43490 whole entry): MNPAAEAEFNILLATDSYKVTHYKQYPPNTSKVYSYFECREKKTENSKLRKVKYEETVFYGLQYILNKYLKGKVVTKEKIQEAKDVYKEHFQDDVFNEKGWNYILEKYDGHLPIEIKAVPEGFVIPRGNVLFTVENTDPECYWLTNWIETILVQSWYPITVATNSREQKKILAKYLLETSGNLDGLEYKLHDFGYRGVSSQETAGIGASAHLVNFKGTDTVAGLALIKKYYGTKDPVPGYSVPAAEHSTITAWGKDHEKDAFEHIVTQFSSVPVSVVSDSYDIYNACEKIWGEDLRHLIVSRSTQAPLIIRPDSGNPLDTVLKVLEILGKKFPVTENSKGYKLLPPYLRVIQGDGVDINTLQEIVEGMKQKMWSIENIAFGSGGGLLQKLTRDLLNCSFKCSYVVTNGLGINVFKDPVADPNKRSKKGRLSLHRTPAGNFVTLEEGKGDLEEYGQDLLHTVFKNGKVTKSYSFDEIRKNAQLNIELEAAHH

SMILES	IC50 (NAMPT; NAMPT enzymatic assay)	IC50 (A2780 cells; SRB)	IC50 (NAMPT; NAMPT enzymatic reaction)	IC50 (A2780 cells; SRB assay)
Cc1ccncc1S(=O)(=O)c1ccc(CNC(=O)c2cc3cnccc3[nH]2)cc1 [N-{[4-(4-methylpyridine-3-sulfonyl)phenyl]methyl}-1H-pyrrolo[3,2-c]pyridine-2-carboxamide]	260 nM	25.8 nM		
O=C(NCc1ccc(S(=O)(=O)c2ccc(C(F)(F)F)c(F)c2)cc1)c1cc2ccncc2o1	9.2 nM	13.7 nM		
CSc1ccc(S(=O)(=O)c2ccc(CNC(=O)c3cc4ccncc4o3)cc2)cc1F	12.3 nM	11.2 nM		
O=C(NCc1ccc(S(=O)(=O)c2cc(C(F)(F)F)ccn2)cc1)c1cnc2nccn2c1 [N-({4-[4-(trifluoromethyl)pyridine-2-sulfonyl]phenyl}methyl)imidazo[1,2-a]pyrimidine-6-carboxamide]	8.7 nM	13 nM		
Cc1cc(C)c(S(=O)(=O)c2ccc(CNC(=O)c3cc4cnccc4[nH]3)cc2)c(C)c1 [N-({4-[(2,4,6-trimethylbenzene)sulfonyl]phenyl}methyl)-1H-pyrrolo[3,2-c]pyridine-2-carboxamide]	76 nM	46 nM		
O=C(NCc1ccc(S(=O)(=O)c2ccccc2Oc2ccccc2)cc1)c1cnc2[nH]ncc2c1 [N-({4-[(2-phenoxybenzene)sulfonyl]phenyl}methyl)-1H-pyrazolo[3,4-b]pyridine-5-carboxamide]		100 to 1000 nM	100 to 1000 nM	
Cn1ncc2c(S(=O)(=O)c3ccc(CNC(=O)c4ccc5ncsc5c4)cc3)cccc21 [N-{[4-(1-methyl-1H-indazole-4-sulfonyl)phenyl]methyl}-1,3-benzothiazole-6-carboxamide]	9.8 nM	1000 to 10000 nM		
Cc1cc(Cl)cnc1S(=O)(=O)c1ccc(CNC(=O)c2cnc3nccn3c2)cc1 [N-{[4-(5-chloro-3-methylpyridine-2-sulfonyl)phenyl]methyl}imidazo[1,2-a]pyrimidine-6-carboxamide]	2.2 nM	22 nM		
CC(C)COc1cc(F)cc(S(=O)(=O)c2ccc(CNC(=O)c3cc4cnccc4[nH]3)cc2)c1	13.2 nM	7 nM		
COCc1cccc(S(=O)(=O)c2ccc(CNC(=O)c3cc4cnccc4[nH]3)cc2)c1 [N-[(4-{[3-(methoxymethyl)benzene]sulfonyl}phenyl)methyl]-1H-pyrrolo[3,2-c]pyridine-2-carboxamide]	20.2 nM	12.8 nM		
CC(C)Oc1cccc(S(=O)(=O)c2ccc(CNC(=O)c3cc4ccncc4s3)cc2)c1F	4.7 nM	6.6 nM		
COc1cccc(Cl)c1S(=O)(=O)c1ccc(CNC(=O)c2cc3ccncc3o2)cc1		21.4 nM	16.7 nM	
CCc1cccc(S(=O)(=O)c2ccc(CNC(=O)c3cc4ccncc4o3)cc2)c1 [N-({4-[(3-ethylbenzene)sulfonyl]phenyl}methyl)furo[2,3-c]pyridine-2-carboxamide]		6.5 nM	8.7 nM	
Cc1ccc(Cl)c(S(=O)(=O)c2ccc(CNC(=O)c3cnc4[nH]ncc4c3)cc2)c1F [N-({4-[(6-chloro-2-fluoro-3-methylbenzene)sulfonyl]phenyl}methyl)-1H-pyrazolo[3,4-b]pyridine-5-carboxamide]	112 nM	100 to 1000 nM		
Cc1cncc(S(=O)(=O)c2ccc(CNC(=O)c3cc4ccncc4s3)cc2)n1 [N-{[4-(6-methylpyrazine-2-sulfonyl)phenyl]methyl}thieno[2,3-c]pyridine-2-carboxamide]	4.8 nM	5.1 nM		
O=C(NCc1ccc(S(=O)(=O)c2ccccc2Cl)cc1)c1cnc2[nH]ncc2c1 [N-({4-[(2-chlorobenzene)sulfonyl]phenyl}methyl)-1H-pyrazolo[3,4-b]pyridine-5-carboxamide]		100 to 1000 nM	92.5 nM	
O=C(NCc1ccc(S(=O)(=O)c2cccc(C(F)(F)F)c2Cl)cc1)c1cnc2nccn2c1	2.4 nM	24.6 nM		
O=C(NCc1ccc(S(=O)(=O)c2ccc3ncccc3c2)cc1)c1cnc2[nH]ncc2c1 [N-{[4-(quinoline-6-sulfonyl)phenyl]methyl}-1H-pyrazolo[3,4-b]pyridine-5-carboxamide]	10.1 nM	4.1 nM		
Cc1cc(-n2cccn2)ccc1S(=O)(=O)c1ccc(CNC(=O)c2cc3cnccc3[nH]2)cc1 [N-[(4-{[2-methyl-4-(1H-pyrazol-1-yl)benzene]sulfonyl}phenyl)methyl]-1H-pyrrolo[3,2-c]pyridine-2-carboxamide]			4 nM	4 nM
Cc1ccc(S(=O)(=O)c2ccc(CNC(=O)c3cnc4nccn4c3)cc2)c(C)c1		49.2 nM	2.1 nM	
Cc1cc(F)cc(S(=O)(=O)c2ccc(CNC(=O)c3ccc4nccn4c3)cc2)c1 [N-({4-[(3-fluoro-5-methylbenzene)sulfonyl]phenyl}methyl)imidazo[1,2-a]pyridine-6-carboxamide]		0.6 nM	2.7 nM	
Cc1cc(S(=O)(=O)c2ccc(CNC(=O)c3cc4ccncc4s3)cc2)ccc1F [N-({4-[(4-fluoro-3-methylbenzene)sulfonyl]phenyl}methyl)thieno[2,3-c]pyridine-2-carboxamide]			7 nM	2.9 nM

SMILES	IC50 (NAMPT; NAMPT enzymatic assay)	IC50 (A2780 cells; SRB)	IC50 (NAMPT; NAMPT enzymatic reaction)	IC50 (A2780 cells; SRB assay)
O=C(NCc1ccc(S(=O)(=O)c2cccc(N3CCCCC3)c2)cc1)c1ccc2nccn2c1	11.4 nM	3.4 nM		
CC(C)Oc1cc(F)ccc1S(=O)(=O)c1ccc(CNC(=O)c2cc3cnccc3[nH]2)cc1	25.4 nM	3.3 nM		
O=C(NCc1ccc(S(=O)(=O)c2ccc(Cl)c(C(F)(F)F)c2)cc1)c1cc2ccncc2o1	6 nM	6.9 nM		
O=C(NCc1ccc(S(=O)(=O)c2ccccc2)cc1)N1CCc2ncccc2C1 [N-{[4-(benzenesulfonyl)phenyl]methyl}-5,6,7,8-tetrahydro-1,6-naphthyridine-6-carboxamide]			544 nM	> 2000 nM
CN(C)CCc1cccc(S(=O)(=O)c2ccc(CNC(=O)c3cc4cnccc4[nH]3)cc2)c1	29.2 nM	22.3 nM		
O=C(NCc1ccc(S(=O)(=O)c2cccc(N3CCOCC3)c2)cc1)c1ccc2nccn2c1	7.7 nM	3.3 nM		
O=C(NCc1ccc(S(=O)(=O)c2cc(Cl)cc(CO)c2)cc1)c1cnc2nccn2c1	3.4 nM	11.4 nM		
CC(=O)c1ccccc1S(=O)(=O)c1ccc(CNC(=O)c2cnc3nccn3c2)cc1		8.2 nM	2.5 nM	
COc1cccc(F)c1S(=O)(=O)c1ccc(CNC(=O)c2ccc3nccn3c2)cc1 [N-({4-[(2-fluoro-6-methoxybenzene)sulfonyl]phenyl}methyl)imidazo[1,2-a]pyridine-6-carboxamide]		26.4 nM	48.1 nM	
COc1cc(F)cc(S(=O)(=O)c2ccc(CNC(=O)c3cc4ccncc4o3)cc2)c1 [N-({4-[(3-fluoro-5-methoxybenzene)sulfonyl]phenyl}methyl)furo[2,3-c]pyridine-2-carboxamide]		3.3 nM	17.4 nM	
Cn1ncc2ccc(S(=O)(=O)c3ccc(CNC(=O)c4cnc5nccn5c4)cc3)cc21 [N-{[4-(1-methyl-1H-indazole-6-sulfonyl)phenyl]methyl}imidazo[1,2-a]pyrimidine-6-carboxamide]	1.6 nM	5 nM		
O=C(NCc1ccc(S(=O)(=O)c2ccc(Cl)c(F)c2)cc1)c1cc2ccncc2o1		6.5 nM	18.5 nM	
COc1ccc2cc(S(=O)(=O)c3ccc(CNC(=O)c4cc5ccncc5s4)cc3)ccc2c1 [N-{[4-(6-methoxynaphthalene-2-sulfonyl)phenyl]methyl}thieno[2,3-c]pyridine-2-carboxamide]	1.5 nM	3.3 nM		
O=C(NCc1ccc(S(=O)(=O)c2ccc(-c3ccccc3)cc2)cc1)c1ccc2ncsc2c1 [N-({4-[(4-phenylbenzene)sulfonyl]phenyl}methyl)-1,3-benzothiazole-6-carboxamide]		100 to 1000 nM	20.7 nM	
CCCCOc1ccc(S(=O)(=O)c2ccc(CNC(=O)c3cc4ccncc4s3)cc2)cc1F [N-({4-[(4-butoxy-3-fluorobenzene)sulfonyl]phenyl}methyl)thieno[2,3-c]pyridine-2-carboxamide]		12.6 nM	4.7 nM	
O=C(NCc1ccc(S(=O)(=O)c2ccc(F)c(F)c2)cc1)c1cc2cnccc2[nH]1 [N-({4-[(3,4-difluorobenzene)sulfonyl]phenyl}methyl)-1H-pyrrolo[3,2-c]pyridine-2-carboxamide]			13 nM	14 nM
COc1ccc(S(=O)(=O)c2ccc(CNC(=O)c3cnc4[nH]ncc4c3)cc2)cc1		14.3 nM	20.9 nM	
CCN(CC)C(=O)c1cc(F)cc(S(=O)(=O)c2ccc(CNC(=O)c3cc4cnccc4[nH]3)cc2)c1	9.3 nM	3.3 nM		
O=C(NCc1ccc(S(=O)(=O)Nc2ccccc2N2CCCCC2)cc1)c1cc2cnccc2[nH]1 [N-[(4-{[2-(piperidin-1-yl)phenyl]sulfamoyl}phenyl)methyl]-1H-pyrrolo[3,2-c]pyridine-2-carboxamide]			72 nM	8 nM
Cn1ncc(S(=O)(=O)c2ccc(CNC(=O)c3cnc4nccn4c3)cc2)c1C(F)(F)F [N-({4-[1-methyl-5-(trifluoromethyl)-1H-pyrazole-4-sulfonyl]phenyl}methyl)imidazo[1,2-a]pyrimidine-6-carboxamide]	4 nM	67.9 nM		
O=C(NCc1ccc(S(=O)(=O)c2cccc(Cl)c2)cc1)c1cc2ccncc2s1 [N-({4-[(3-chlorobenzene)sulfonyl]phenyl}methyl)thieno[2,3-c]pyridine-2-carboxamide]			5 nM	3 nM
Cn1ncc2cc(S(=O)(=O)c3ccc(CNC(=O)c4cc5cnccc5[nH]4)cc3)ccc21 [N-{[4-(1-methyl-1H-indazole-5-sulfonyl)phenyl]methyl}-1H-pyrrolo[3,2-c]pyridine-2-carboxamide]	5.7 nM	3.1 nM		
